Measurements from article PMC7369637, “Inhibition of Resistance-Refractory P. falciparum Kinase PKG Delivers Prophylactic, Blood Stage, and Transmission-Blocking Antiplasmodial Activity” (Cell Chemical Biology, 2020).
Values joined by “and” are separate entries in the source; they are usually repeats but may differ in a detail not shown here. Equal entries are not always repeated.

Key:
Pf Dd2-B2 ABS parasites = experiment: 72-h asexual blood stage (ABS) growth inhibition assay, Dd2-B2; type: cell-based, Plasmodium falciparum; conditions: Dd2-B2 wild-type, 72 h; read-out: Mean IC50, 72 h ABS activity
Description: (§1) Synchronicity was achieved using three rounds of sorbitol treatment on early rings, spaced 48 h apart, followed by magnetic purification of segmented schizonts following the final sorbitol treatment. Parasites were highly synchronous to within a 3 h window of development. Assays were repeated on at least three independent occasions (each with technical duplicates) and statistical significance was assessed using Mann Whitney U tests.

sel. Dd2-B2 TKL3T1268R = experiment: 72-h ABS assay, MMV030084-selected line; type: cell-based, Plasmodium falciparum
Description: as §1
The resulting MMV030084-resistant parasites were cloned by limiting dilution ([Baker et al., 2017]) to obtain genetically homogenous cultures for further phenotyping and whole-genome sequencing. A second round of […]. […] Drug susceptibility of resistant lines was assessed using a 72 h ABS assay as described above, and a Mann Whitney U test was applied to assess statistically significant differences.

B-raf kinase = conditions: ref Gamo et al., 2010; cited from earlier work
[1] = system: recombinant TKL3 kinase domain; experiment: Radioactive in vitro kinase assay with recombinant TKL3 kinase domain; type: biochemical, Plasmodium falciparum; conditions: 20 μM compound
Description: Recombinant proteins were expressed in E. coli as previously described ([Abdi et al., 2010]). […] The cultures were then cooled to 20°C followed by induction of protein expression with 0.5 mM IPTG and further incubation at 20°C, 200 rpm for 16 h. Cultures were harvested by centrifugation at 4000g, 4°C for 10 min. Bacterial pellets were washed once in 1× PBS and were stored at −80°C. Cell pellets were resuspended in ice-cold Lysis Buffer (50 mM sodium phosphate, pH 8.0, 400 mM NaCl, 5 % (w/v) glycerol, 0.1 % (v/v) Triton X-100, 20 mM imidazole, 2 mM β-mercaptoethanol, 1× Roche protease inhibitor cocktail EDTA-free, 1 mg/ml lysozyme). Cells were disrupted by sonication. Protein was bound on a HisTrap HP column and eluted with a linear gradient of increasing imidazole concentrations. The peak fractions as determined by A280 trace were pooled together and further purified by size exclusion chromatography on a S200 gel filtration column equilibrated in 25 mM Tris pH 7.5, 100 mM NaCl, 5 % (w/v) glycerol, 1 mM DTT. Protein was pooled and concentrated. Final concentration was determined using a Bradford assay with a BSA protein standard.
Kinase assays containing 3 μg of recombinant kinase (WT or mutant) were performed in kinase assay buffer (25 mM Hepes, pH 7.5, 2 mM MnCl2, 10 mM β-glycerophosphate, 10 mM NaF, 25 μM ATP (containing 5 μCi [γ-^32P]-ATP-3000 mCi/mmol (PerkinElmer)), 5 μg substrate myelin basic protein (MBP) and ± 20 μM inhibitor) in a final reaction volume of 20 μl and incubated at 30°C for 30 min. Reactions were stopped by the addition of 5× Laemmli sample buffer and heated to 98°C for 5 min. Proteins were resolved by 4-12 % SDS-PAGE and stained in Coomassie Brilliant Blue. Kinase activity was detected by phosphorimaging. Imaging was performed on a Typhoon 5 Biomolecular imager (GE Healthcare Life Sciences).

[2] = molecular target: T1, cGMP-dependent protein kinase (PKG) (PF3D7_1436600) (Plasmodium falciparum, UniProt Q8I719); experiment: Competitive chemoproteomics in Pf lysates (Kinobeads / bead-immobilized compound); type: binding; conditions: lysates exposed to 40 μM of the same compound vs vehicle
T1 construct: The beads were incubated at 4°C for 1 h with either 0.1 ml (0.3 mg) Pf blood stage extract; endogenous in cells; host or cells: P. falciparum asexual blood-stage parasites (trophozoite stage), saponin-freed and lysed
T1 sequence (Q8I719 whole entry): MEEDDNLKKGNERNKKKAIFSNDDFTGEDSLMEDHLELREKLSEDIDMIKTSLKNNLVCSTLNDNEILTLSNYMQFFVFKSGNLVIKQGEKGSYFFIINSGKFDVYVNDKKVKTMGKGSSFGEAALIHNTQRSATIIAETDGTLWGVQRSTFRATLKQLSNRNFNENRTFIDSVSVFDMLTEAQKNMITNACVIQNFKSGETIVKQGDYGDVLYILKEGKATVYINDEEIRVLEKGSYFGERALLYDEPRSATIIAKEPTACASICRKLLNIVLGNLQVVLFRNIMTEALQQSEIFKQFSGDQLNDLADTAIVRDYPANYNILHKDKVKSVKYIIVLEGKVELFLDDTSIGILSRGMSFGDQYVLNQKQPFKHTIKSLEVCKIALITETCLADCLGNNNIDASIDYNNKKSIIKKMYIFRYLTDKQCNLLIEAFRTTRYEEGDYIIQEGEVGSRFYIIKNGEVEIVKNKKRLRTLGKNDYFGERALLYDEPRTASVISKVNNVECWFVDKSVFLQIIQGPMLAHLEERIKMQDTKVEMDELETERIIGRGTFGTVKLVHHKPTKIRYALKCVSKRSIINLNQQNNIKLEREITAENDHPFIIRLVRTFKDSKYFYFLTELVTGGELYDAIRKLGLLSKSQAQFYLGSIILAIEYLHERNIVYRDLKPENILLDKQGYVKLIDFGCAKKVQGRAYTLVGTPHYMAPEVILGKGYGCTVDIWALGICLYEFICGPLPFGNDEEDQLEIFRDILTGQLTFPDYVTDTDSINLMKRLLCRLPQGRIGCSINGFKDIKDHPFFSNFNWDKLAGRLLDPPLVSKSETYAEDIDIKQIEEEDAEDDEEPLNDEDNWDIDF

[3] = molecular target: T2, calcium-dependent protein kinase 1 (CDPK1) (PF3D7_0217500) (Plasmodium falciparum, UniProt P62344); experiment: as above; type: binding; conditions: lysates exposed to 40 μM of the same compound vs vehicle
T2 construct: endogenous in cells; host or cells: P. falciparum asexual blood-stage parasites (trophozoite stage)
T2 sequence (P62344 whole entry): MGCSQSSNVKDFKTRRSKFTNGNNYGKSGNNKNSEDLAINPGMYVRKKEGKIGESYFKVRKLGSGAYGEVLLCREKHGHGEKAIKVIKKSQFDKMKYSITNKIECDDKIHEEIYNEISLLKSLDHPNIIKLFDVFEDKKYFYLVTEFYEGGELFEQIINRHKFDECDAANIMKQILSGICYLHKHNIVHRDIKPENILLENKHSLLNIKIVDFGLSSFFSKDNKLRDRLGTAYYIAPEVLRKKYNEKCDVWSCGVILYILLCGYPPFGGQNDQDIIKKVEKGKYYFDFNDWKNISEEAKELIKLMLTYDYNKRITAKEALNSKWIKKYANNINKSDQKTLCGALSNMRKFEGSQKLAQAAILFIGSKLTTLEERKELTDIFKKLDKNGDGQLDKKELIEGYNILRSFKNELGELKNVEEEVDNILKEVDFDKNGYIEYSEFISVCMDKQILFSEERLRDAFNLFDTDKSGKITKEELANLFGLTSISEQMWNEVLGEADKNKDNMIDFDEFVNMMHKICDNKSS
Description: (§2) Pf protein extracts were prepared as described elsewhere ([Paquet et al., 2017]). Parasite cultures at the trophozoite stage were harvested, washed twice in RPMI 1640 medium (Gibco), and lysed by the addition of saponin to a final concentration of 0.1% for 5 min at room temperature. Free parasites were sedimented by centrifugation (3500 rpm for 10 min), washed three times with phosphate-buffered saline, and stored at −80°C. Parasites were resuspended in cell lysis buffer (50 mM tris-HCl (pH 7.5), 5% glycerol, 1.5 mM MgCl2, […], 1 mM […], 25 mM sodium fluoride, 0.8% NP-40, EDTA-free protease inhibitor cocktail tablets (Roche Diagnostics), and 1 mM DTT) and disrupted by sonication (Sonics Vibra-Cell) using two 30-s cycles on ice at half-amplitude. After centrifugation (140,000g for 1 h at 4°C), soluble proteins were recovered from the supernatants, and protein concentrations of each sample were estimated using the Lowry-based DC assay (Bio-Rad). Samples were stored at −80°C until use.
(§3) Kinobeads were prepared by immobilizing Bis-(III) indolyl-maleimide, purvalanol B, staurosporine and CZC8004, and the analogs of PD173955, sunitinib and vandetanib on NHS-activated Sepharose 4 beads (Amersham) ([Bantscheff et al., 2007]). […] The chemoproteomic affinity-capturing experiments were performed as previously described ([Bantscheff et al., 2011]). Briefly, beads were washed and equilibrated in lysis buffer (50 mM Tris-HCl, pH 7.4, 0.4 % Igepal-CA630, 1.5 mM MgCl2, 5 % Glycerol, 150 mM NaCl, 25 mM NaF, 1 mM Na3VO4, 1 mM DTT, and one cOmplete EDTA-free protease inhibitor tablet (Roche) per 25 mL). The beads were incubated at 4°C for 1 h with either 0.1 ml (0.3 mg) Pf blood stage extract or 0.5 mL (2.5 mg) human cell/tissue protein extract (a mixture of HEK-293, K-562, Hep G2 , and placental cells), which was pre-incubated with compound or DMSO (vehicle control). 10 samples were measured in parallel (TMT 10-plex ([Werner et al., 2014])) to generate values for the affinity of the beads to the bound proteins (“depletion” values, 4 samples) and to generate IC50 values (6 samples) in a single experiment. Apparent dissociation constants were determined after accounting for protein depletion by the beads ([Bantscheff et al., 2011]). Beads were transferred to Filter plates (Durapore PVDF membrane, Merck Millipore), washed with lysis buffer, and eluted with SDS sample buffer.
(§4) Proteins were digested according to a modified single pot solid-phase sample preparation (SP3) protocol ([Hughes et al., 2014]). Peptides were labeled with isobaric mass tags (Thermo Fisher Scientific, Waltham, MA) using 10-plex TMT reagents, enabling relative quantification of 10 conditions in a single experiment ([Werner et al., 2014]). The labeling reactions and LC-MS/MS measurements using Q Exactive Orbitrap or Orbitrap Fusion Lumos mass spectrometers (Thermo Fisher Scientific) were performed as described elsewhere ([Sridharan et al., 2019]). Mascot 2.4 (Matrix Science, Boston, MA) was used for protein identification by using a 10 parts per million mass tolerance for peptide precursors and 20 mD (HCD) mass tolerance for fragment ions. To create the fasta file for mascot searching, all proteins corresponding to the taxonomy ‘Plasmodium falciparum (isolate 3D7)’ were downloaded from Uniprot (release 20170621) and supplemented with common contaminant protein sequences of bovine serum albumin, porcine trypsin and mouse, rat, sheep and dog keratins. To assess the false discovery rate (FDR), “decoy” proteins (reverse of all protein sequences) were created and added to the database, resulting in a database containing a total of 14266 protein sequences, with 50% forward and 50% reverse. For peptide and protein identification of human proteins see ([Sridharan et al., 2019]). […]

[4] = molecular target: putative amino acid transporter (AAT) (PF3D7_1231400) (Plasmodium falciparum, UniProt Q8I5A6); experiment: as above; type: binding; conditions: lysates exposed to 40 μM of the same compound vs vehicle
putative amino acid transporter (AAT) (PF3D7_1231400), sequence (Q8I5A6 entry or part of it): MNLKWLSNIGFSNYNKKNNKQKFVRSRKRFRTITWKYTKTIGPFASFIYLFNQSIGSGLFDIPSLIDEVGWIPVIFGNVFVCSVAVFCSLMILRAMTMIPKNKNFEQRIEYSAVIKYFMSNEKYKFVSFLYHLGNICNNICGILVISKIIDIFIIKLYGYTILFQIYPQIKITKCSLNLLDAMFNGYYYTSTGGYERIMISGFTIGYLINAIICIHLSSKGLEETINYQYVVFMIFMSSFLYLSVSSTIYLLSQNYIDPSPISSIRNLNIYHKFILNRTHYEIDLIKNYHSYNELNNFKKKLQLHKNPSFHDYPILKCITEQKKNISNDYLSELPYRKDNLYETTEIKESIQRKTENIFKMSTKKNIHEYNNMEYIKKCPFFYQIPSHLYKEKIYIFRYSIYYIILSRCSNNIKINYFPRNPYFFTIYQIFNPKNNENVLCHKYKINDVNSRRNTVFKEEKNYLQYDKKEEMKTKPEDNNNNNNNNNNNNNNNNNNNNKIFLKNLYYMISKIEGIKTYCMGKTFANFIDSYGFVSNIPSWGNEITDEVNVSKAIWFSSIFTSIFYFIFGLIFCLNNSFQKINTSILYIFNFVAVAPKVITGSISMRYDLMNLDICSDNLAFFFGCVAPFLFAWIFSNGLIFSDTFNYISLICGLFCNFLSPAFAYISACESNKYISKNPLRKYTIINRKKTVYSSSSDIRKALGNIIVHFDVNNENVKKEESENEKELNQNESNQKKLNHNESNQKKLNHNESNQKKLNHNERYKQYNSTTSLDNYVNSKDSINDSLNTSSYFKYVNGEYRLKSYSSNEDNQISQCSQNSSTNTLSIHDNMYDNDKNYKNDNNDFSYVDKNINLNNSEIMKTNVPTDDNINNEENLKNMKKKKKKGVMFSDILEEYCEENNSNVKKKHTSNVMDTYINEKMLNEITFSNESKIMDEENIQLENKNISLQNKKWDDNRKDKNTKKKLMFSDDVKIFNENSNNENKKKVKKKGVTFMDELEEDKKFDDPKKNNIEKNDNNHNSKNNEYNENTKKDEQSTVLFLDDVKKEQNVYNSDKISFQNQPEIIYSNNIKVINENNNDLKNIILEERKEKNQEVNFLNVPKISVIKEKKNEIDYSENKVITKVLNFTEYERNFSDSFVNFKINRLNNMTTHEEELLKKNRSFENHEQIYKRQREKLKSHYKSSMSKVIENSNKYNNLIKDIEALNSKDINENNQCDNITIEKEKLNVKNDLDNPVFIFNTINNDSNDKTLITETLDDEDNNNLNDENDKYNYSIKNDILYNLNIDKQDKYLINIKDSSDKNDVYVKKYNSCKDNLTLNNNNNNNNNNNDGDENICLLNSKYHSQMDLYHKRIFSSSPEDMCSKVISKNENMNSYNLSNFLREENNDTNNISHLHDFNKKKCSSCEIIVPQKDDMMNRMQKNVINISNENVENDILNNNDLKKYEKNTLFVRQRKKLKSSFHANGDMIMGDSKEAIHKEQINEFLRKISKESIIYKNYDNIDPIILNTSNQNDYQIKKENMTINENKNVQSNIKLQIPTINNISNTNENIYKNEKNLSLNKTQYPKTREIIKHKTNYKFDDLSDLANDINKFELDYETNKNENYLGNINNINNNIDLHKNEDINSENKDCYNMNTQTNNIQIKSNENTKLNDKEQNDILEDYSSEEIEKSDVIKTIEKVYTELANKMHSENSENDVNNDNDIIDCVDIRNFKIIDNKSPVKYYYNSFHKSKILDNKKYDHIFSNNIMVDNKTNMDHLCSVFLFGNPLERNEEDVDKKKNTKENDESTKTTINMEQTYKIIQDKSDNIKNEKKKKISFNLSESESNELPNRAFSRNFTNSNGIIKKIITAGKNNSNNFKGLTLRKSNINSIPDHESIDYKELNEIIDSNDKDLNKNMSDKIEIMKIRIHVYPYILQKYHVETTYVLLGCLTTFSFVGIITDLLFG
Description: as §2, §3, §4

AAT cKD line = experiment: Compound susceptibility assay using cKD lines (72 h, Renilla luciferase); type: cell-based, Plasmodium falciparum; conditions: AAT cKD line
From the text: (§5) To study the interaction between the compounds and PKG (PF3D7_1436600), AAT (PF3D7_1231400), CDPK1 (PF3D7_0217500), TKL3 (PF3D7_1349300), PP1 (PF3D7_1414400), and URP (PF3D7_0808300), cKD lines were generated by fusing the transcripts with RNA aptamers for translation regulation with the TetR/DOZI system ([Ganesan et al., 2016]). The right homology regions (RHR) of each target gene were amplified by PCR, using the primers listed in Table S1 (A), and along with the left homology regions (LHR) were fused to the re-codonized 3'-end region of the gene. Single guide RNA fragments were synthesized using the BioXP™ 3200 System (SGI-DNA; Table S1 (A)) and were cloned into the pSN054 vector ([Nasamu et al., 2019]) to install the C-terminal epitope tags V5 and 2x-hemagglutinin (HA) followed by a 10x RNA aptamer array and the TetR-DOZI expression cassette. This cassette also contained Blasticidin S-deaminase for selection in the parasites and the reporter gene Renilla luciferase (RLuc). The 3'-end of each target was re-codonized to avoid further modifications of the edited locus in the parasite via removal of the PAM site. Donor vector generation was carried out via Gibson assembly, and the final construct sequence was confirmed by restriction digests and Sanger sequencing.
(§6) Transfection into parasites was carried out by preloading erythrocytes with linearized vectors as described previously ([Deitsch et al., 2001]). Briefly, 50 μg of purified plasmid DNA was mixed with human RBC and subjected to 8 square wave electroporation pulses of 365 V for 1 ms each, separated by 0.1 s in a 0.2 cm cuvette. The plasmid DNA preloaded cells were inoculated with NF54 parasites expressing Cas9 and T7 RNA polymerase, maintained in 500 nM anhydrotetracycline (aTc, Sigma-Aldrich 37919), and drug selection with 2.5 μg/mL of Blasticidin (RPI Corp B12150-0.1) was initiated four days after transfection. Emergence of transfectants was monitored via Giemsa smears and RLuc measurements.
(§7) Synchronized ring-stage cKD parasites in varying aTc concentrations (high = 50 nM, intermediate = 1.5 nM, low = 1 nM, and no aTc) were distributed into the drug plate. No-drug treatment and treatment with a lethal dose of chloroquine (200 nM) served as reference controls.

CDPK1 cKD line = experiment: as above; type: cell-based, Plasmodium falciparum; conditions: CDPK1 cKD line
From the text: as §5, §6, §7

PKG cKD line = experiment: as above; type: cell-based, Plasmodium falciparum; conditions: PKG cKD line
From the text: as §5, §6, §7

PP1 cKD line = experiment: as above; type: cell-based, Plasmodium falciparum
From the text: as §5, §6, §7

TKL3 cKD line = experiment: as above; type: cell-based, Plasmodium falciparum; conditions: TKL3 cKD line
From the text: as §5, §6, §7

URP cKD line = experiment: as above; type: cell-based, Plasmodium falciparum
From the text: as §5, §6, §7

| Compound | IC50 (Pf Dd2-B2 ABS parasites) | IC50 (sel. Dd2-B2 TKL3T1268R) [nM] | Reduction in TKL3 kinase activity [1] | other results |
| --- | --- | --- | --- | --- |
| CC(C)(CN)c1cc(-c2ccc(Cl)c(O)c2)c(-c2ccncc2)o1.Cl [TCMDC-141334] | 277 nM | 599 |  | Reported kinase inhibitor activity (B-raf kinase): B-raf kinase inhibitor |
| CNCC(C)(C)c1nc(-c2ccc(Cl)c(O)c2)c(-c2ccncc2)[nH]1.Cl [TCMDC-140762] | 187 nM | 443 | no reduction |  |
| CC(C)(CNC(=O)[C@@H]1CCCCN1)c1nc(-c2ccc(Cl)c(O)c2)c(-c2ccncc2)[nH]1.Cl [TCMDC-141079] | 250 nM | 771 | no reduction |  |
| Cl.NCC1(c2nc(-c3ccc(Cl)c(O)c3)c(-c3ccncc3)[nH]2)CCCCC1 [TCMDC-141154] | 140 nM | 369 |  | PKG pull-down by bead-bound compound [2]: pulled down; CDPK1 pull-down by bead-bound compound [3]: pulled down; AAT pull-down by bead-bound compound [4]: pulled down |
| CC(C)(CN)c1nc(-c2ccc(Cl)c(O)c2)c(-c2ccnc(N)n2)[nH]1 [MMV030734] | 65 nM and 65.3 nM | 197 | no reduction | IC50 (AAT cKD line; Control, [aTc] used 50.0): 42.6 nM; IC50 (AAT cKD line; KD, [aTc] used 0.0): 18.5 nM; IC50 (CDPK1 cKD line; Control, [aTc] used 50.0): 21.1 nM; IC50 (CDPK1 cKD line; KD, [aTc] used 1.0): 18 nM; IC50 (PKG cKD line; Control, [aTc] used 50.0): 20.8 nM; IC50 (PKG cKD line; KD, [aTc] used 1.0): 8.4 nM; IC50 (PP1 cKD line; Control, [aTc] used 50.0): 29.5 nM; IC50 (PP1 cKD line; KD, [aTc] used 1.5): 36.7 nM; IC50 (TKL3 cKD line; Control, [aTc] used 50.0): 37.5 nM; IC50 (TKL3 cKD line; KD, [aTc] used 0.0): 80.8 nM; IC50 (URP cKD line; Control, [aTc] used 50.0): 34 nM; IC50 (URP cKD line; KD, [aTc] used 0.0): 44.5 nM |
| CC(C)(CNC(=O)[C@H]1CCCCN1)c1nc(-c2ccc(Cl)c(O)c2)c(-c2ccncc2)[nH]1 [TCMDC-141070] | 186 nM | 717 |  |  |
| CC(C)(C)CNCC(C)(C)c1nc(-c2ccc(Cl)c(O)c2)c(-c2ccncc2)[nH]1 [TCMDC-140549] | 210 nM | 287 |  |  |
| CC(C)(CN)c1nc(-c2ccc(Br)c(O)c2)c(-c2ccncc2)[nH]1 [TCMDC-140680] | 85.9 nM | 249 |  |  |
| CN1CCC=C(C(=O)NCC(C)(C)c2nc(-c3ccc(Cl)c(O)c3)c(-c3ccncc3)[nH]2)C1 [TCMDC-140700] | 394 nM | 1190 |  |  |
